Test results: PubChem BioAssay (NCI)
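All cell lines were grown in 96-well plates and treated with compound for 48 hours. TGI: total growth inhibition.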

Tests used:
Assay in all cases: NCI-60 cell line screen, 48 h
786-0 renal = system: 786-0 renal
A498 renal = system: A498 renal
A549 NSCLC = system: A549 NSCLC
ACHN renal = system: ACHN renal
BT-549 breast = system: BT-549 breast
CAKI-1 renal = system: CAKI-1 renal
CCRF-CEM leukemia = system: CCRF-CEM leukemia
COLO 205 colon = system: COLO 205 colon
DU-145 prostate = system: DU-145 prostate
EKVX NSCLC = system: EKVX NSCLC
HCC-2998 colon = system: HCC-2998 colon
HCT-116 colon = system: HCT-116 colon
HCT-15 colon = system: HCT-15 colon
HOP-62 NSCLC = system: HOP-62 NSCLC
HS 578T breast = system: HS 578T breast
HT29 colon = system: HT29 colon
IGROV1 ovarian = system: IGROV1 ovarian
K-562 leukemia = system: K-562 leukemia
KM12 colon = system: KM12 colon
LOX IMVI melanoma = system: LOX IMVI melanoma
M14 melanoma = system: M14 melanoma
MALME-3M melanoma = system: MALME-3M melanoma
MCF7 breast = system: MCF7 breast
MDA-MB-231 breast = system: MDA-MB-231 breast
MDA-MB-435 = system: MDA-MB-435
MDA-N = system: MDA-N
MOLT-4 leukemia = system: MOLT-4 leukemia
NCI-H226 lung = system: NCI-H226 lung
NCI-H23 lung = system: NCI-H23 lung
NCI-H460 lung = system: NCI-H460 lung
NCI-H522 lung = system: NCI-H522 lung
NCI/ADR-RES ovarian = system: NCI/ADR-RES ovarian
OVCAR-3 ovarian = system: OVCAR-3 ovarian
OVCAR-4 ovarian = system: OVCAR-4 ovarian
OVCAR-5 ovarian = system: OVCAR-5 ovarian
OVCAR-8 ovarian = system: OVCAR-8 ovarian
PC-3 prostate = system: PC-3 prostate
RPMI-8226 leukemia = system: RPMI-8226 leukemia
RXF 393 renal = system: RXF 393 renal
SF-268 CNS = system: SF-268 CNS
SF-295 CNS = system: SF-295 CNS
SF-539 CNS = system: SF-539 CNS
SK-MEL-2 melanoma = system: SK-MEL-2 melanoma
SK-MEL-5 melanoma = system: SK-MEL-5 melanoma
SK-OV-3 ovarian = system: SK-OV-3 ovarian
SN12C renal = system: SN12C renal
SNB-19 CNS = system: SNB-19 CNS
SNB-75 CNS = system: SNB-75 CNS
SR leukemia = system: SR leukemia
SW-620 colon = system: SW-620 colon
T-47D breast = system: T-47D breast
TK-10 renal = system: TK-10 renal
U251 CNS = system: U251 CNS
UACC-257 melanoma = system: UACC-257 melanoma
UACC-62 melanoma = system: UACC-62 melanoma
UO-31 renal = system: UO-31 renal

## CC(=O)NC1C(OC(C)C(=O)NC(C)C(=O)NC(CCC(=O)NCCCCCNc2ccc([N+](=O)[O-])c3[nH]c4ccccc4c(=O)c23)C(N)=O)C(O)C(CO)OC1(C)OCc1ccccc1 (stereo unspecified)
786-0 renal
  TGI: > 100 µM
A498 renal
  TGI: > 100 µM
A549 NSCLC
  TGI: > 100 µM
ACHN renal
  TGI: > 100 µM
BT-549 breast
  TGI: > 100 µM
CAKI-1 renal
  TGI: > 100 µM
CCRF-CEM leukemia
  TGI: > 100 µM
COLO 205 colon
  TGI: > 100 µM
DU-145 prostate
  TGI: > 100 µM
EKVX NSCLC
  TGI: > 100 µM
HCC-2998 colon
  TGI: > 100 µM
HCT-116 colon
  TGI: > 100 µM
HCT-15 colon
  TGI: > 100 µM
HOP-62 NSCLC
  TGI: > 100 µM
HS 578T breast
  TGI: > 100 µM
HT29 colon
  TGI: > 100 µM
IGROV1 ovarian
  TGI: > 100 µM
K-562 leukemia
  TGI: > 100 µM
KM12 colon
  TGI: > 100 µM
LOX IMVI melanoma
  TGI: > 100 µM
M14 melanoma
  TGI: > 100 µM
MALME-3M melanoma
  TGI: > 100 µM
MCF7 breast
  TGI: > 100 µM
MDA-MB-231 breast
  TGI: > 100 µM
MDA-MB-435
  TGI: > 100 µM
MDA-N
  TGI: > 100 µM
MOLT-4 leukemia
  TGI: > 100 µM
NCI-H226 lung
  TGI: > 100 µM
NCI-H23 lung
  TGI: > 100 µM
NCI-H460 lung
  TGI: > 100 µM
NCI-H522 lung
  TGI: > 100 µM
NCI/ADR-RES ovarian
  TGI: > 100 µM
OVCAR-3 ovarian
  TGI: > 100 µM
OVCAR-4 ovarian
  TGI: > 100 µM
OVCAR-5 ovarian
  TGI: > 100 µM
OVCAR-8 ovarian
  TGI: > 100 µM
PC-3 prostate
  TGI: > 100 µM
RPMI-8226 leukemia
  TGI: 70.1 µM
RXF 393 renal
  TGI: > 100 µM
SF-268 CNS
  TGI: > 100 µM
SF-295 CNS
  TGI: > 100 µM
SF-539 CNS
  TGI: > 100 µM
SK-MEL-2 melanoma
  TGI: > 100 µM
SK-MEL-5 melanoma
  TGI: > 100 µM
SK-OV-3 ovarian
  TGI: > 100 µM
SN12C renal
  TGI: > 100 µM
SNB-19 CNS
  TGI: > 100 µM
SNB-75 CNS
  TGI: > 100 µM
SR leukemia
  TGI: > 100 µM
SW-620 colon
  TGI: > 100 µM
T-47D breast
  TGI: > 100 µM
TK-10 renal
  TGI: 82.1 µM
U251 CNS
  TGI: > 100 µM
UACC-257 melanoma
  TGI: > 100 µM
UACC-62 melanoma
  TGI: > 100 µM
UO-31 renal
  TGI: > 100 µM
